{"source": "patent US10160986B2", "about": "“Chemoenzymatic synthesis of heparin and heparan sulfate analogs” (The Regents of the University of California, priority 2011, dated 2018)", "key": {"NahK_ATCC55813": {"biological_target": "NahK_ATCC55813 (Bifidobacterium longum subsp. longum, UniProt E8MF12, D7V/R348H)", "experimental": "(§1) Kinetics by CE assays. Reactions were carried out in duplicate at 37° C. for 10 min in a total volume of 20 μL in Tris-HCl buffer (200 mM, pH 7.5) containing MgCl2 (1 mM), ATP, GlcNAc or GalNAc, and NahK (0.25 μM when GlcNAc and ATP were used as substrates, 0.5 μM when GalNAc and ATP were used as substrates). Apparent kinetic parameters were obtained by varying the ATP concentration from 0.1-5.0 mM (0.1 mM, 0.2 mM, 0.4 mM, 1 mM, 2 mM, and 5 mM) at a fixed concentration of GlcNAc or GalNAc (1 mM), or varying the concentration of GlcNAc or GalNAc (0.1 mM, 0.2 mM, 0.4 mM, 1 mM, 2 mM, and 5 mM) at a fixed concentration of ATP (1 mM) and fitting the data to the Michaelis-Menten equation using Grafit 5.0.\n(§2) Capillary electrophoresis (CE) assays. Based on the detection of ADP and ATP in the reaction mixture by a UV detector, a capillary electrophoresis-based method was developed to directly measure the formation of ADP and N-acetylhexosamine-1-phosphate from ATP and N-acetylhexosamine for characterizing the activities of NahKs."}, "NahK_JCM1217": {"biological_target": "NahK_JCM1217 (Bifidobacterium longum subsp. longum, UniProt E8MF12)", "conditions": "ATP and GlcNAc as substrates; HPIC with pulsed amperometric detector; cited from earlier work"}, "human FGF-4": {"biological_target": "T1, human FGF-4 (Homo sapiens, UniProt P08620)", "T1 construct": "purchased PeproTech Inc (Rocky Hill, N.J.)", "T1 sequence (P08620 31-206)": "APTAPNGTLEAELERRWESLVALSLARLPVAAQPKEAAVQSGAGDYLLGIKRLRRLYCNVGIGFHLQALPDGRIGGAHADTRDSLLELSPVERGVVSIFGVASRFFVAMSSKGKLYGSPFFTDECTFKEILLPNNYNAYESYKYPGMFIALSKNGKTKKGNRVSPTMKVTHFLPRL", "experiment": "Inhibition of FGF-4 binding to immobilized heparin-biotin", "conditions": "compound 1 mM; FGF 1 μM", "excerpt": "(§3) Materials. Recombinant human fibroblast growth factors FGF-1, FGF-2, FGF-4, and anti-human FGF-1, FGF-2, FGF-4 were purchased from PeproTech Inc (Rocky Hill, N.J.). Heparin-biotin was from Sigma (St. Louis, Mo.). Low molecular weight heparin (LMWH) was bought from AMS Biotechnology (Lake Forest, Calif.). Alexa Fluor® 488 goat anti-rabbit IgG (H+L) was from Invitrogen (Carlsbad, Calif.). 384-Well NeutrAvidin-coated plates for the sialidase assays were from Fisher Biotech.\nMethods. All assays were carried out in duplicate in 384-well NeutrAvidin coated plates. Heparin-biotin (20 μL, 2 μM) was added to each well and the plate was incubated at 4° C. for overnight. The plate was washed with 3 rounds of 1×PBS buffer containing 0.05% Tween-20 and blocked with 1% BSA (50 μL for each well) and incubated at r.t. for 30 min. After the plate was washed three times with 1×PBS buffer containing 0.05% Tween-20, each set of duplicate wells were added 20 μL of human FGF-1, FGF-2, or FGF-4 (1 μM) with or without premixing with LMWH (˜22 nM or 0.1 μM), monosaccharide, or oligosaccharides (100 μM or 1 mM) and the plate was incubate at r.t. for 1 hr. […] After washed three times with 1×PBS buffer containing 0.05% Tween-20 and once with water, the fluorescent signals of wells in the plate were measured using a microtiter plate reader."}, "human FGF-1": {"biological_target": "T2, human FGF-1 (Homo sapiens, UniProt P05230)", "T2 construct": "purchased PeproTech Inc (Rocky Hill, N.J.)", "experiment": "Inhibition of FGF-1 binding to immobilized heparin-biotin", "conditions": "compound 1 mM; FGF 1 μM", "excerpt": "as §3\n(§4) Methods. All assays were carried out in duplicate in 384-well NeutrAvidin coated plates. Heparin-biotin (20 μL, 2 μM) was added to each well and the plate was incubated at 4° C. for overnight. The plate was washed with 3 rounds of 1×PBS buffer containing 0.05% Tween-20 and blocked with 1% BSA (50 μL for each well) and incubated at r.t. for 30 min. After the plate was washed three times with 1×PBS buffer containing 0.05% Tween-20, each set of duplicate wells were added 20 μL of human FGF-1, FGF-2, or FGF-4 (1 μM) with or without premixing with LMWH (˜22 nM or 0.1 μM), monosaccharide, or oligosaccharides (100 μM or 1 mM) and the plate was incubate at r.t. for 1 hr. After washing three times with 1×PBS buffer containing 0.05% Tween-20, anti-human FGF-1, FGF-2 or FGF-4 (20 μL) was added and the plate was incubated at r.t. for 1 hr. After the plate was washed three times with 1×PBS buffer containing 0.05% Tween-20, Alexa Fluor® 488 goat anti-rabbit IgG (H+L) (20 μL) was added and the plate was incubated at r.t. for 1 hr. After washed three times with 1×PBS buffer containing 0.05% Tween-20 and once with water, the fluorescent signals of wells in the plate were measured using a microtiter plate reader."}, "human FGF-2": {"biological_target": "T3, human FGF-2 (Homo sapiens, UniProt P09038)", "T3 construct": "purchased PeproTech Inc (Rocky Hill, N.J.)", "experiment": "Inhibition of FGF-2 binding to immobilized heparin-biotin", "conditions": "compound 1 mM; FGF 1 μM", "excerpt": "as §3, §4"}, "AtGlcAK [1]": {"biological_target": "T4, AtGlcAK (Arabidopsis thaliana, UniProt Q93ZC9, I297M)", "T4 construct": "made in house; host or cells: E. coli BL21 (DE3)", "experiment": "AtGlcAK substrate specificity CE assay", "type": "biochemical", "experimental": "Substrate specificity assays. […] The reactions were quenched and assayed with the same method as those for pH profile. All reactions were performed in duplicates."}, "AtGlcAK [2]": {"biological_target": "T4, AtGlcAK", "experiment": "AtGlcAK substrate specificity by TLC and LC-MS", "type": "biochemical", "conditions": "sugar 10 mM, ATP 20 mM, AtGlcAK 22 μg, 37° C., 15 hr", "experimental": "Substrates specificity assays by thin-layer chromatography (TLC). […] For visualizing compounds on TLC plate, p-anisaldehyde sugar stain was used.\nLC-MS assays for AtGlcAK reactions. The AtGlcAK reaction mixtures above were also analyzed by LC-MS. 2 μL of sample was diluted 100 fold and 8 μL was injected into a Waters spherisorb ODS-2 column (5 μm particles, 250 mm length, 4.6 mm I.D.). The sample was eluted with 30% acetonitrile in H2O with 0.1% formic acid and detected by ESI-MS in negative mode."}, "[3]": {"test_system": "necrotizing enterocolitis in neonatal rats", "conditions": "previously reported; cited from earlier work"}, "NahK_ATCC15697": {"biological_target": "NahK_ATCC15697 (Bifidobacterium longum, UniProt B7GN78)", "experiment": "Kinetics by CE assays, NahK_ATCC15697", "conditions": "in the presence of ATP", "experimental": "as §1, §2"}, "[4]": {"conditions": "Low enzyme Conc. (412 ng in 20 μL, 15 min, 37° C.)"}}, "data": [{"compound": "Nc1ncnc2c1ncn2[C@@H]1O[C@H](COP(=O)(O)OP(=O)(O)OP(=O)(O)O)[C@@H](O)[C@H]1O", "note": "[ATP, Adenosine-5′-triphosphate]", "values": [{"measurement": "kcat", "setting": "NahK_ATCC55813; substrates ATP and GlcNAc", "result": "1.3 ± 0.1", "unit": "s⁻¹"}, {"measurement": "Km", "setting": "NahK_ATCC55813; substrates ATP and GlcNAc, one varied, other fixed at 1 mM, 37° C., 10 min", "result": "110 ± 30", "unit": "µM"}, {"measurement": "Km", "setting": "NahK_JCM1217", "result": 172, "unit": "µM"}]}, {"compound": "O=C[C@H](O)[C@@H](O)[C@H](O)[C@H](O)C(=O)O", "note": "[Compound F24-1, glucuronic acid]", "values": [{"measurement": "inhibition at 1000 µM", "setting": "human FGF-4", "result": 54, "unit": "%"}, {"measurement": "inhibition at 1000 µM", "setting": "human FGF-1", "result": 65, "unit": "%"}, {"measurement": "inhibition at 1000 µM", "setting": "human FGF-2", "result": 68, "unit": "%"}, {"measurement": "Percentage conversion of ATP", "setting": "AtGlcAK [1]; [4]", "result": 61.5, "unit": "%"}, {"measurement": "substrate for AtGlcAK (formation of sugar-1-phosphate)", "setting": "AtGlcAK [2]", "result": "acceptable substrates"}]}, {"compound": "CC(=O)N[C@H]1[C@H](O[C@H]2[C@@H](O)[C@@H](CO)O[C@@H](O[C@@H]([C@H](O)[C@@H](O)C=O)[C@H](O)CO)[C@@H]2O)O[C@H](CO[C@]2(C(=O)O)C[C@H](O)[C@@H](NC(C)=O)[C@H]([C@H](O)[C@H](O)CO)O2)[C@@H](O)[C@@H]1O[C@@H]1O[C@H](CO)[C@H](O)[C@H](O[C@]2(C(=O)O)C[C@H](O)[C@@H](NC(C)=O)[C@H]([C@H](O)[C@H](O)CO)O2)[C@H]1O", "note": "[DSLNT, disialyllacto-N-tetraose]", "values": [{"measurement": "NEC preventing effect in neonatal rat model", "setting": "[3]", "result": "effective for preventing necrotizing enterocolitis"}]}, {"compound": "O=C[C@H](O)[C@@H](O)[C@@H](O)[C@H](O)C(=O)O", "note": "[GalA, galacturonic acid]", "values": [{"measurement": "Percentage conversion of ATP", "setting": "AtGlcAK [1]; High enzyme Conc. (2.1 μg in 20 μL, 60 min, 37° C.)", "result": 15.3, "unit": "%"}, {"measurement": "Percentage conversion of ATP", "setting": "AtGlcAK [1]; [4]", "result": 6.2, "unit": "%"}, {"measurement": "substrate for AtGlcAK (formation of sugar-1-phosphate)", "setting": "AtGlcAK [2]", "result": "acceptable substrates"}]}, {"compound": "CC(=O)N[C@H]1C(O)O[C@H](CO)[C@@H](O)[C@@H]1O", "note": "(stereo partly shown) [GlcNAc, N-acetylglucosamine]", "values": [{"measurement": "efficiency as substrate relative to GalNAc", "setting": "NahK_ATCC55813; in the presence of ATP", "result": 2.6, "unit": "fold"}, {"measurement": "Km", "setting": "NahK_JCM1217", "result": 118, "unit": "µM"}, {"measurement": "efficiency as substrate relative to GalNAc", "setting": "NahK_ATCC15697", "result": 3.1, "unit": "fold"}]}, {"compound": "O=C[C@@H](O)[C@H](O)[C@@H](O)[C@H](O)C(=O)O", "note": "[IdoA, iduronic acid]", "values": [{"measurement": "substrate for AtGlcAK (formation of sugar-1-phosphate)", "setting": "AtGlcAK [2]", "result": "acceptable substrates"}]}, {"compound": "GlcAβ1-4GlcNH2α1-4GlcAβ2AA [Compound F24-11]", "values": [{"measurement": "FGF-1 (% inhibition)", "setting": "human FGF-1", "result": 76, "unit": "%"}]}, {"compound": "GlcNAc6N3α1-4GlcAβ1-4GlcNH2α1-4GlcAβ2AA [Compound F24-13]", "values": [{"measurement": "FGF-1 (% inhibition)", "setting": "human FGF-1", "result": 62, "unit": "%"}]}, {"compound": "GlcNAc6NH2α1-4GlcAβ1-4GlcNSα1-4GlcAβ2AA [Compound F24-15]", "values": [{"measurement": "FGF-4 (% inhibition)", "setting": "human FGF-4", "result": 43, "unit": "%"}, {"measurement": "FGF-2 (% inhibition)", "setting": "human FGF-2", "result": 68, "unit": "%"}]}, {"compound": "GlcNAc6NSα1-4GlcAβ1-4GlcNSα1-4GlcAβ2AA [Compound F24-16]", "values": [{"measurement": "FGF-1 (% inhibition)", "setting": "human FGF-1", "result": 58, "unit": "%"}, {"measurement": "FGF-2 (% inhibition)", "setting": "human FGF-2", "result": 55, "unit": "%"}]}]}
